Test: Room temperature evaporation rate: rate of weight loss in a stream of 25° C. nitrogen relative to n-butyl acetate
Assay type: physicochemical
Conditions: not given
Protocol: Most compounds released by manufacturing processes affect the environment in some manner. […] The room temperature evaporation rates of some of the ILs described in the present invention were compared to several well known compounds by measuring the rate of weight loss in a stream of 25° C. nitrogen relative to the rate of weight loss of n-butyl acetate under the same conditions.

**Q.** For `CCCCC(CC)C(=O)[O-].CCCCC(CC)C(=O)[O-].[Zn+2]` (stereo not shown) [Zn(2eh)2, zinc (II) 2-ethylhexanoate], which “Evaporation Rate (n-Butyl Acetate = 1)” value is on record?
**A.** The value was under 0.001.

**Q.** With `CCCCCC` [hexane] as the compound, how does the “Evaporation Rate (n-Butyl Acetate = 1)” value read?
**A.** The value was 8.9.

**Q.** With `OCCO` [ethylene glycol] as the compound, how does the “Evaporation Rate (n-Butyl Acetate = 1)” value read?
**A.** The value was under 0.01.

Same assay, conditions: rate of weight loss in a stream of 25° C. nitrogen, relative to n-butyl acetate under the same conditions

**Q.** With `CC(C)O` [IPA] as the compound, how does the “Evaporation Rate (n-Butyl Acetate = 1)” value read?
**A.** Its value is 2.5.

**Q.** For `CCC(C)=O` [methyl ethyl ketone], which “Evaporation Rate (n-Butyl Acetate = 1)” value is on record?
**A.** Its value is 5.7.

**Q.** With `CCCCO` [n-Butanol] as the compound, how does the “Evaporation Rate (n-Butyl Acetate = 1)” value read?
**A.** The value was 0.43.

**Q.** Which “Evaporation Rate (n-Butyl Acetate = 1)” value does the source give for `CC(C)=O` [acetone] here?
**A.** The value was 14.4.

**Q.** For `Cc1ccccc1` [toluene], which “Evaporation Rate (n-Butyl Acetate = 1)” value is on record?
**A.** The value was 1.9.

**Q.** For xylene, which “Evaporation Rate (n-Butyl Acetate = 1)” value is on record?
**A.** Its value is 0.8.

**Q.** For `CCCCC(CC)C(=O)O` (stereo not shown) [H2eh, 2-ethylhexanoic acid], which “Evaporation Rate (n-Butyl Acetate = 1)” value is on record?
**A.** The value was 0.003.
